Laboratory results published in patent publication US20220386606A1, “SPECIFICALLY SUBSTITUTED 3-PHENYL-5-SPIROCYCLOPENTYL-3-PYRROLIN-2-ONES AND THEIR USE AS HERBICIDES” (Bayer Aktiengesellschaft, priority 2019, published 2022).

Assays:
[1] = system: ALOMY; experiment: Pre-emergence herbicidal action against ALOMY; type: in vivo, Alopecurus myosuroides; conditions: 320 g/ha, scored visually after 3 weeks vs untreated controls
From the text: (§1) Seeds of monocotyledonous and dicotyledonous weed plants and crop plants are laid out in sandy loam soil in wood-fiber pots and covered with soil. The compounds of the invention, formulated in the form of wettable powders (WP) or as emulsion concentrates (EC), are then applied to the surface of the covering soil as aqueous suspension or emulsion at a water application rate equating to 600 to 800 L/ha with addition of 0.2% wetting agent.
(§2) After the treatment, the pots are placed in a greenhouse and kept under good growth conditions for the trial plants. The damage to the test plants is scored visually after a test period of 3 weeks by comparison with untreated controls (herbicidal activity in percent (%): 100% activity=the plants have died, 0% activity=like control plants).

[2] = system: AVEFA; experiment: Pre-emergence herbicidal action against AVEFA; type: in vivo, Avena fatua; conditions: 320 g/ha, scored visually after 3 weeks vs untreated controls
From the text: as §1, §2

[3] = system: DIGSA; experiment: Pre-emergence herbicidal action against DIGSA; type: in vivo, Digitaria sanguinalis; conditions: 320 g/ha, scored visually after 3 weeks vs untreated controls
From the text: as §1, §2

[4] = system: ECHCG; experiment: Pre-emergence herbicidal action against ECHCG; type: in vivo, Echinochloa crus-galli; conditions: 320 g/ha, scored visually after 3 weeks vs untreated controls
From the text: as §1, §2

[5] = system: LOLRI; experiment: Pre-emergence herbicidal action against LOLRI (Table 8, titled post-emergence at 320 g/ha); type: in vivo, Lolium rigidum; conditions: table stands in the pre-emergence section
From the text: as §1, §2

[6] = system: SETVI; experiment: Pre-emergence herbicidal action against SETVI; type: in vivo, Setaria viridis; conditions: 320 g/ha, scored visually after 3 weeks vs untreated controls
From the text: as §1, §2

[7] = system: VIOTR; experiment: Pre-emergence herbicidal action against VIOTR; type: in vivo, Viola tricolor; conditions: 320 g/ha
From the text: as §1, §2

[8] = system: ALOMY; experiment: Post-emergence herbicidal action against ALOMY; type: in vivo, Alopecurus myosuroides; conditions: 80 g/ha, visual assessment after about 3 weeks
Description: (§3) Seeds of monocotyledonous and dicotyledonous weed and crop plants are laid out in sandy loam soil in wood-fiber pots, covered with soil and cultivated in a greenhouse under good growth conditions. 2 to 3 weeks after sowing, the test plants are treated at the one-leaf stage. The compounds of the invention, formulated in the form of wettable powders (WP) or as emulsion concentrates (EC), are then sprayed onto the green parts of the plants as aqueous suspension or emulsion at a water application rate equating to 600 to 800 l/ha with addition of 0.2% wetting agent. After the test plants have been left to stand in the greenhouse under optimal growth conditions for about 3 weeks, the action of the preparations is assessed visually in comparison to untreated controls (herbicidal action in percent (%): 100% activity=the plants have died, 0% activity=like control plants).

[9] = system: DIGSA; experiment: Post-emergence herbicidal action against DIGSA; type: in vivo, Digitaria sanguinalis; conditions: 80 g/ha, visual assessment about 3 weeks after treatment vs untreated controls
Description: as §3

[10] = system: ECHCG; experiment: Post-emergence herbicidal action against ECHCG; type: in vivo, Echinochloa crus-galli; conditions: 80 g/ha, visual assessment about 3 weeks after treatment vs untreated controls
Description: as §3

[11] = system: LOLRI; experiment: Post-emergence herbicidal action against LOLRI; type: in vivo, Lolium rigidum; conditions: 80 g/ha, visual assessment about 3 weeks after treatment vs untreated controls
Description: as §3

[12] = system: SETVI; experiment: Post-emergence herbicidal action against SETVI; type: in vivo, Setaria viridis; conditions: 80 g/ha, visual assessment about 3 weeks after treatment vs untreated controls
Description: as §3

[13] = system: AVEFA; experiment: Post-emergence herbicidal action against AVEFA; type: in vivo, Avena fatua; conditions: 80 g/ha, visual assessment after about 3 weeks
Description: as §3

[14] = system: AMARE; experiment: Pre-emergence herbicidal action against AMARE; type: in vivo, Amaranthus retroflexus; conditions: 320 g/ha
From the text: as §1, §2

Row | Compound | Pre-emergence action against ALOMY in % [1] [%] | Pre-emergence action against AVEFA in % [2] [%] | Pre-emergence action against DIGSA in % [3] [%] | Pre-emergence action against ECHCG in % [4] [%] | Pre-emergence herbicidal action against LOLRI in % [5] [%] | Pre-emergence action against SETVI in % [6] [%] | Pre-emergence action against VIOTR in % [7] [%] | Post-emergence action against ALOMY in % [8] [%] | Post-emergence action against DIGSA in % [9] [%] | Post-emergence action against ECHCG in % [10] [%] | Post-emergence action against LOLRI in % [11] [%] | Post-emergence action against SETVI in % [12] [%] | Post-emergence action against AVEFA in % [13] [%] | Pre-emergence action against AMARE in % [14] [%]
1 | CC#Cc1cc(C)c(C2=C(O)C3(CCC(COCC)C3)NC2=O)c(Br)c1 (stereo not shown) [Example I-20] | 100 | 100 | 100 | 100 | 100 | 100 | 100 | 100 | 90 | 100 | 100 | 100 |  | 
2 | CC#Cc1cc(C)c(C2=C(O)C3(CCC(COC)C3)NC2=O)c(OC)c1 (stereo not shown) [Example I-33] | 100 | 80 | 100 |  | 100 | 100 | 100 | 100 | 100 | 100 | 100 | 100 | 100 | 
3 | C=CCOCC1CCC2(C1)NC(=O)C(c1c(C)cc(C#CC)cc1OC)=C2O (stereo not shown) [Example I-45] | 80 |  | 100 | 100 | 100 | 100 | 80 | 90 | 90 | 100 |  | 100 | 80 | 
4 | C=CCOCC1CCC2(C1)NC(=O)C(c1c(F)cc(C#CC)cc1OC)=C2O (stereo not shown) [Example I-55] | 100 |  | 100 | 100 | 100 | 100 |  | 100 |  | 100 |  | 100 | 90 | 80
5 | C#CCOCC1CCC2(C1)NC(=O)C(c1c(C)cc(C#CC)cc1OC)=C2O (stereo not shown) [Example I-76] | 100 |  | 100 | 100 | 100 | 100 | 90 | 90 | 90 | 100 | 90 | 100 | 90 | 
6 | CC#Cc1cc(Br)c(C2=C(OC(=O)C(C)C)C3(CCC(COCC)C3)NC2=O)c(CC)c1 (stereo not shown) [Example P-43] |  |  |  |  |  |  | 100 |  |  |  |  |  |  | 
7 | CC#Cc1cc(C)c(C2=C(OC(=O)OCC)C3(CCC(COC)C3)NC2=O)c(OC)c1 (stereo not shown) [Example P-47] | 100 | 100 | 100 | 100 |  | 100 | 100 | 100 | 100 | 100 | 100 | 100 | 90 | 100
8 | CC#Cc1cc(C)c(C2=C(OC(=O)C(C)C)C3(CCC(COCC)C3)NC2=O)c(F)c1 (stereo not shown) [Example P-59] | 100 | 100 | 100 | 100 | 100 | 100 | 100 | 100 | 100 | 100 | 100 | 100 | 90 | 
9 | CC#Cc1cc(F)c(C2=C(OC(=O)C(C)C)C3(CCC(COC)C3)NC2=O)c(OC)c1 (stereo not shown) [Example P-65] | 100 | 100 | 100 | 100 | 100 | 100 | 80 | 90 | 100 | 90 | 100 | 100 | 90 | 
10 | CC#Cc1cc(F)c(C2=C(OC(=O)C(C)C)C3(CCC(COC)C3)NC2=O)c(OC)c1 (stereo not shown) [Example P-66] | 100 | 100 | 100 | 100 | 90 | 100 |  | 90 | 100 | 100 | 100 | 100 | 90 | 
11 | CC#Cc1cc(Br)c(C2=C(OC(=O)OCC)C3(CCC(COC)C3)NC2=O)c(OCC)c1 (stereo not shown) [Example P-90] | 100 | 100 | 100 | 100 | 100 | 100 |  | 100 | 90 | 100 | 100 | 100 | 80 | 
12 | CC#Cc1cc(Br)c(C2=C(OC(=O)OCC)C3(CCC(COCC)C3)NC2=O)c(OCC)c1 (stereo not shown) [Example P-95] | 100 | 100 | 100 | 100 | 100 | 100 |  | 100 | 80 | 100 | 90 | 100 | 80 | 
13 | C#CCOCC1CCC2(C1)NC(=O)C(c1c(F)cc(C#CC)cc1OC)=C2OC(=O)OCC (stereo not shown) [Example P-102] | 100 | 80 | 100 | 100 | 100 | 100 |  | 90 | 90 | 80 | 90 | 90 | 80 | 90
14 | C#CCOCC1CCC2(C1)NC(=O)C(c1c(F)cc(C#CC)cc1OC)=C2OC(=O)OCC (stereo not shown) [Example P-104] | 100 |  | 100 | 100 | 100 | 100 |  | 100 | 90 | 100 |  | 100 | 90 | 100
